From patent US20230407243A1, “GENETIC PLATFORM TO INVESTIGATE THE FUNCTIONS OF BACTERIAL DRUG EFFLUX PUMPS” (priority 2022, published 2023)
Where “and” joins values, the source holds several entries; their conditions need not be identical. Equal values may be shown once. Read-outs that look alike come from different tables or passages of the source.

Experiments:
Type in all cases: cell-based, Escherichia coli
EKO-35-Pore = assay: Checkerboard synergy (FICI), porinated strain; settings: EKO-35 Pore
Method: (§1) Synergy measurement using checkerboard analysis was performed in 96-well microtiter plates using the microdilution broth method, according to CLSI guidelines (Patel J. B., 2015). The cell inocula were prepared using the colony resuspension method. The minimum inhibitory concentrations (MICs) were defined as the lowest concentration that provided no growth, as determined by measurement of the OD600nm using a Synergy H1 microplate reader (BioTek). Susceptibility testing was performed in MHB II with a final volume of 100 μL. PAI3N (Bachem Americas) was solubilized in MHB II. […] Solvent controls were included in each plate.
(§2) The Fractional Inhibitory Concentration Index (FICI) was used to assess the synergy of PAI3N in combination with different antibiotics. The FICI represents the ΣFIC of each drug. The FICI for each drug was calculated using the following formula: FICI=FICA+FICB=(CA/MICA)+(CB/MICB). Where MICA and MICB are the MICs of drugs A (PAI3N/NMP) and B (antibiotic) alone, and CA and CB are the MICs of the drugs in combination. The effects of PAβN or NMP in combination with antibiotics were classified as: synergistic (FICI<0.5), additive (FICI>0.5-1.0), indifferent (FICI>1.0-2.0), and antagonistic (FICI>2.0). Fold increases in resistance provided by efflux pumps were calculated by dividing the MIC values of strains expressing efflux pumps by the MIC value of EKO-35.

[1] = system: EKO-35 porinated strain expressing acrB; assay: Checkerboard synergy (FICI), porinated strain; settings: EKO-35 acrB Pore
Method: as §1, §2

wild-type K-12-Pore = assay: Checkerboard synergy (FICI), porinated strain; settings: K-12 Pore
Method: as §1, §2

[2] = system: EKO-35-Pore acrBD408A (functionally inactive AcrB variant); assay: Checkerboard synergy (FICI), porinated strain; settings: EKO-35 acrBD408A Pore
Method: as §1, §2

ΔtolC = settings: ΔtolC; for PABN MICa Alone: PAβN alone, one value per checkerboard
Summary of the method: (§3)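 Read-out was OD600, the MIC being the lowest concentration without growth in a CLSI checkerboard run in MHB II. Each drug's MIC in combination was divided by its MIC alone and the two ratios summed as FICI. Cut-offs: <0.5 synergy, >0.5–1.0 additive, >1.0–2.0 indifferent, >2.0 antagonism.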

EKO-35 = settings: for PABN MICa Alone / PABN MICa Combined: EKO-35; for PABN MICa Alone: PAβN alone, one value per checkerboard
Summary of the method: as §3

EKO-35 acrBD408A = settings: EKO-35 acrBD408A; for PABN MICa Alone: PAβN alone, one value per checkerboard
Summary of the method: as §3

ΔtolC-Pore = settings: ΔtolC Pore; for PABN MICa Alone: PAβN alone, one value per checkerboard
Summary of the method: as §3

phenylalanine-arginine-β-naphthylamide [PAβN]
PABN MICa Alone (EKO-35-Pore; PAβN alone, one value per checkerboard, listed as PABN): 64 µg/mL and 32 µg/mL | PABN MICa Combined (EKO-35-Pore; with Ciprofloxacin): 2 µg/mL | PABN MICa Combined (EKO-35-Pore; with Erythromycin): 8 µg/mL | PABN MICa Combined (EKO-35-Pore; with Fusidic Acid): 16 µg/mL | PABN MICa Combined (EKO-35-Pore; with Linezolid): 32 µg/mL | PABN MICa Combined (EKO-35-Pore; with Novobiocin): 16 µg/mL | PABN MICa Combined (EKO-35-Pore; with Oxacillin): 32 µg/mL | PABN MICa Combined ([1]; with Erythromycin): 16 µg/mL | PABN MICa Combined ([1]; with Fusidic Acid): 32 µg/mL | PABN MICa Combined ([1]; with Linezolid): 16 µg/mL | PABN MICa Combined ([1]; with Novobiocin): 16 µg/mL | PABN MICa Combined ([1]; with Oxacillin): 16 µg/mL | PABN MICa Combined (wild-type K-12-Pore; with Ciprofloxacin): 256 µg/mL | PABN MICa Combined (wild-type K-12-Pore; with Erythromycin): 64 µg/mL | PABN MICa Combined (wild-type K-12-Pore; with Fusidic Acid): 32 µg/mL | PABN MICa Combined (wild-type K-12-Pore; with Linezolid): 32 µg/mL | PABN MICa Combined (wild-type K-12-Pore; with Novobiocin): 2 µg/mL | PABN MICa Combined (wild-type K-12-Pore; with Oxacillin): 64 µg/mL | PABN MICa Combined ([2]; with Ciprofloxacin): 8 µg/mL | PABN MICa Combined ([2]; with Erythromycin): 16 µg/mL | PABN MICa Combined ([2]; with Fusidic Acid): 8 µg/mL | PABN MICa Combined ([2]; with Linezolid): 32 µg/mL | PABN MICa Combined ([2]; with Novobiocin): 8 µg/mL | PABN MICa Combined ([2]; with Oxacillin): 32 µg/mL | PABN MICa Alone (ΔtolC): 64 µg/mL | PABN MICa Alone (ΔtolC; listed as PABN): 128 µg/mL | PABN MICa Combined (ΔtolC; with Ciprofloxacin): 32 µg/mL | PABN MICa Combined (ΔtolC; with Erythromycin): 8 µg/mL | PABN MICa Combined (ΔtolC; with Fusidic Acid): 16 µg/mL | PABN MICa Combined (ΔtolC; with Linezolid): 64 µg/mL | PABN MICa Combined (ΔtolC; with Novobiocin): 16 µg/mL | PABN MICa Combined (ΔtolC; with Oxacillin): 8 µg/mL | PABN MICa Alone (EKO-35): 64 µg/mL | PABN MICa Alone (EKO-35; listed as PABN): 128 µg/mL | PABN MICa Combined (EKO-35; with Ciprofloxacin): 4 µg/mL | PABN MICa Combined (EKO-35; with Erythromycin): 8 µg/mL | PABN MICa Combined (EKO-35; with Fusidic Acid): 16 µg/mL | PABN MICa Combined (EKO-35; with Linezolid): 32 µg/mL | PABN MICa Combined (EKO-35; with Novobiocin): 8 µg/mL | PABN MICa Combined (EKO-35; with Oxacillin): 4 µg/mL | susceptibility to the efflux pump inhibitor alone, efflux-deficient strains vs wild-type (EKO-35; efflux-deficient strains EKO-35, EKO-35 acrBD408A, ΔtolC): exhibits antibacterial activity, which is enhanced upon efflux inactivation | PABN MICa Alone (EKO-35 acrBD408A): 64 µg/mL | PABN MICa Alone (EKO-35 acrBD408A; listed as PABN): 128 µg/mL | PABN MICa Combined (EKO-35 acrBD408A; with Ciprofloxacin): 8 µg/mL | PABN MICa Combined (EKO-35 acrBD408A; with Erythromycin): 8 µg/mL | PABN MICa Combined (EKO-35 acrBD408A; with Fusidic Acid): 8 µg/mL | PABN MICa Combined (EKO-35 acrBD408A; with Linezolid): 32 µg/mL | PABN MICa Combined (EKO-35 acrBD408A; with Novobiocin): 8 µg/mL | PABN MICa Combined (EKO-35 acrBD408A; with Oxacillin): 16 µg/mL | PABN MICa Alone (ΔtolC-Pore): 64 µg/mL | PABN MICa Alone (ΔtolC-Pore; listed as PABN): 128 µg/mL | PABN MICa Combined (ΔtolC-Pore; with Ciprofloxacin): 64 µg/mL | PABN MICa Combined (ΔtolC-Pore; with Erythromycin): 16 µg/mL | PABN MICa Combined (ΔtolC-Pore; with Fusidic Acid): 32 µg/mL | PABN MICa Combined (ΔtolC-Pore; with Linezolid): 64 µg/mL | PABN MICa Combined (ΔtolC-Pore; with Novobiocin): 32 µg/mL | PABN MICa Combined (ΔtolC-Pore; with Oxacillin): 64 µg/mL
